The text below walks through data of patent publication US12479895B2, “C-terminal CDNF and MANF fragments, pharmaceutical compositions comprising same and uses thereof” (MyNeuroCure Oy, priority 2018, dated 2025).

The test system of one data set is ER stressed SCG neurons. As to the kind of experiment: Survival of tunicamycin-treated (ER stressed) SCG sympathetic neurons after microinjection. Type of data set: cell-based, mice. Conditions: for survived neurons as % compared to neurons grown in the presence of NGF: microinjected into cytoplasm, CDNF (400); for survived neurons as % compared to neurons grown in the presence of NGF / rescue of ER stressed SCG neurons (result in words): tunicamycin 2 μM; for rescue of ER stressed SCG neurons (result in words): protein or peptide microinjected into the cytoplasm, living fluorescent neurons counted after 3 days; for Fold change of survived neurons compared to neurons injected with PBS: data of Table 1 divided by values of PBS. In short, it runs like this: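 Newborn mouse SCG neurons grown 5-6 days with 30 ng/ml NGF, then microinjected with CDNF (FL or C-terminal) plasmids (10 ng/ul, EGFP reporter) or proteins (200 ng/ul, Dextran Texas Red). Tunicamycin (2 μM) added next day. Fluorescent survivors counted blindly after 3 days as % of initial; compared with vector or PBS (ANOVA/Dunnett).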

Another data set deals with rat 6-OHDA model of PD. The experiment in a line: Neurorestoration study in 6-OHDA model of PD in rats. In kind it is in vivo.
In another data set the test system is dopamine neurons. As to the kind of experiment: Survival of TH-positive dopamine neurons in dissociated midbrain floor cultures. Type of data set: cell-based, mouse. Conditions: for survived neurons as % compared to neurons grown in the presence of GDNF / protection of dopaminergic neurons in culture (result in words): 5 days; for protection of dopaminergic neurons in culture (result in words): added to the culture medium, TH-positive neurons counted; for Fold change of survived neurons compared to neurons grown without growth factors: data of Table 3 divided by values of no factor. The essentials:
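Dissociated E13.5 NMRI mouse midbrain floor neurons grown five days in DMEM/F12 with N2, with polypeptides at a range of concentrations, GDNF (100 ng/ml), or nothing. TH-immunopositive neurons were counted by imaging. Values are a percentage of GDNF-maintained TH-positive neurons, as mean ± SEM from at least three independent cultures.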

The test system of the next data set is E14 dopamine neurons. As to the kind of experiment: Internalization experiment on dopaminergic neurons. In kind it is cell-based, Mouse. The following applies: 30,000 cpm of iodinated protein, 37° C., 2 hr, acid wash. The procedure: Mouse E13.5 dopamine neurons grown on the 24 well plate in culture were incubated with 30,000 cpm of iodinated CDNF or C-CDNF per well at 37° C. 2 hr. The cells were transferred to ice and washed once with 0.5 ml of the ice cold media. Then cells were transferred to Eppendorf tubes and washed at 4° C. once with 0.2M acetic acid, 0.5M NaCl, pH 2.8. After centrifugation at 1000 g for 10 min cells were dissolved in 0.5 ml of 0.5 N NaOH and counted on the gamma counter.

[1] abbreviates: Table 1B (FIG. 16), exp1, counted after 3 days.
[2] abbreviates: Table 1B (FIG. 16), exp2, counted after 3 days.
Where [3] appears, read: Table 1B (FIG. 16), exp3, counted after 3 days.
Where [4] appears, read: Table 3B (FIG. 17), AVG, 1 ng/ml.
Setting [5] is: Table 3B (FIG. 17), AVG, 10 ng/ml.
[6] abbreviates: Table 3B (FIG. 17), AVG, 100 ng/ml.
Where [7] appears, read: Table 3B (FIG. 17), AVG, 1000 ng/ml.

On to “TLDLASVDLRKMRVAELKQILHSWGEECRACAE (listed as Homo sapiens) [pep15]”, for which the results for the “survived neurons as % compared to neurons grown in the presence of NGF” value (“survived neurons as % … of NGF” below) in the data set with ER stressed SCG neurons (setting [1]), with ER stressed SCG neurons (setting [2]) and in the data set on ER stressed SCG neurons (setting [3]) were 70.17 % NGF, 61.81 % NGF and 71.42 % NGF, respectively. Further, the “rescue of ER stressed SCG neurons (result in words)” value in the data set with ER stressed SCG neurons was “rescue”. In addition, the “protection against 6-OHDA-induced impairment in motor imbalance (amphetamine-induced rotational behavior)” value in the data set on rat 6-OHDA model of PD (subcutaneous injections 50 μg twice a week for 4 weeks starting two weeks post-lesion, p<0.001 vs vehicle) was “effective”. For the same substance, the “survived neurons as % compared to neurons grown in the presence of GDNF” value (from here on “survived neurons as % … of GDNF”) in the data set with dopamine neurons (setting [4]) turned out to be 73.72 % GDNF; in the data set with dopamine neurons (setting [5]), 87.03 % GDNF; in the data set with dopamine neurons (setting [6]), 93.53 % GDNF; in the data set on dopamine neurons (setting [7]), 86.15 % GDNF. For the same substance, the “protection of dopaminergic neurons in culture (result in words)” value in the data set with dopamine neurons is reported as “best protective effect”.
In the case of “^125I-CDNF: CDNF iodinated with 125I-Na using the lactoperoxidase method”, the “internalization into dopamine neurons (radioactivity inside the cells)” value in the data set on E14 dopamine neurons was “but not ^125I-CDNF is efficiently internalized”.
Consider CKGC [MANF4, reference compound], for which, in the data set with rat 6-OHDA model of PD (infused into the striatum starting 2 weeks after 6-OHDA lesioning, rotations up to 12 weeks post lesioning), the “efficacy on amphetamine-induced rotations” value was “not effective”.
Regarding “KYEKTLDLASVDLRKMRVAELKQILHSWGEECRACAEKTDYVNLIQELAP (listed as Homo sapiens) [pep7]”, the “survived neurons as % … of NGF” value in the data set with ER stressed SCG neurons (Table 1A (FIG. 14), AVG of exp1-2) was found to be 80.76 % NGF; in the data set on ER stressed SCG neurons (Table 1A (FIG. 14), exp1, counted after 3 days) it was 76.67 % NGF; in the data set on ER stressed SCG neurons (Table 1A (FIG. 14), exp2, counted after 3 days) it was 84.85 % NGF. In addition, the “Fold change of survived neurons compared to neurons injected with PBS” value with ER stressed SCG neurons (Table 2, AVG) is 2.19 Fold to PBS; in the data set on ER stressed SCG neurons (Table 2, exp1), 2.24 Fold to PBS; in the data set with ER stressed SCG neurons (Table 2, exp2), 2.14 Fold to PBS. Moreover, the “survived neurons as % … of GDNF” value in the data set on dopamine neurons (Table 3A (FIG. 15), AVG, 1 ng/ml) is recorded as 70.12 % GDNF; in the data set on dopamine neurons (Table 3A (FIG. 15), AVG, 10 ng/ml) it was 76.13 % GDNF; in the data set with dopamine neurons (Table 3A (FIG. 15), AVG, 100 ng/ml), 72.36 % GDNF; in the data set on dopamine neurons (Table 3A (FIG. 15), AVG, 1000 ng/ml), 79.07 % GDNF; with dopamine neurons (Table 3A (FIG. 15), exp1, 1 ng/ml), 67.76 % GDNF; with dopamine neurons (Table 3A (FIG. 15), exp1, 10 ng/ml) it was 63.47 % GDNF. Besides, the “survived neurons as % … of GDNF” value amounted to 62.89 % GDNF with dopamine neurons (Table 3A (FIG. 15), exp1, 100 ng/ml); 64.02 % GDNF in the data set on dopamine neurons (Table 3A (FIG. 15), exp1, 1000 ng/ml); 73.36 % GDNF in the data set on dopamine neurons (Table 3A (FIG. 15), exp2, 1 ng/ml); 83.50 % GDNF in the data set on dopamine neurons (Table 3A (FIG. 15), exp2, 10 ng/ml); 79.82 % GDNF in the data set with dopamine neurons (Table 3A (FIG. 15), exp2, 100 ng/ml); 86.37 % GDNF in the data set on dopamine neurons (Table 3A (FIG. 15), exp2, 1000 ng/ml). For the same substance, the “survived neurons as % … of GDNF” value in the data set on dopamine neurons (Table 3A (FIG. 15), exp3, 1 ng/ml) is 69.24 % GDNF; in the data set with dopamine neurons (Table 3A (FIG. 15), exp3, 10 ng/ml), 81.41 % GDNF; in the data set on dopamine neurons (Table 3A (FIG. 15), exp3, 100 ng/ml) it was 74.38 % GDNF; in the data set on dopamine neurons (Table 3A (FIG. 15), exp3, 1000 ng/ml), 86.80 % GDNF. In addition, the “Fold change of survived neurons compared to neurons grown without growth factors” value in the data set on dopamine neurons (Table 4, AVG, 1 ng/ml) came out at 1.14 fold; in the data set on dopamine neurons (Table 4, AVG, 10 ng/ml), 1.23 fold; with dopamine neurons (Table 4, AVG, 100 ng/ml), 1.17 fold; with dopamine neurons (Table 4, AVG, 1000 ng/ml), 1.28 fold; in the data set with dopamine neurons (Table 4, exp1, 1 ng/ml), 1.19 fold; with dopamine neurons (Table 4, exp1, 10 ng/ml), 1.11 fold. Also, the “Fold change of survived neurons compared to neurons grown without growth factors” value in the data set on dopamine neurons (Table 4, exp1, 100 ng/ml) is given as 1.10 fold; in the data set on dopamine neurons (Table 4, exp1, 1000 ng/ml) it was 1.12 fold; in the data set on dopamine neurons (Table 4, exp2, 1 ng/ml) it was 1.16 fold; with dopamine neurons (Table 4, exp2, 10 ng/ml) it was 1.32 fold; in the data set on dopamine neurons (Table 4, exp2, 100 ng/ml), 1.27 fold; in the data set with dopamine neurons (Table 4, exp2, 1000 ng/ml) it was 1.37 fold. Further, the “Fold change of survived neurons compared to neurons grown without growth factors” value in the data set on dopamine neurons (Table 4, exp3, 1 ng/ml) is listed as 1.07 fold; in the data set with dopamine neurons (Table 4, exp3, 10 ng/ml) it was 1.26 fold; in the data set on dopamine neurons (Table 4, exp3, 100 ng/ml), 1.15 fold; in the data set with dopamine neurons (Table 4, exp3, 1000 ng/ml), 1.34 fold.
Take “TLDLASVDLRKMRVAEPKQILHSWGEECRACAEKTDYVNLIQELAPKYA (Mutated C-CDNF peptide) [pep12]”: the “survived neurons as % … of NGF” value in the data set on ER stressed SCG neurons (setting [1]) amounted to 86.74 % NGF; with ER stressed SCG neurons (setting [2]) it was 86.15 % NGF; in the data set on ER stressed SCG neurons (setting [3]) it was 70.17 % NGF. Further, the “rescue of ER stressed SCG neurons (result in words)” value in the data set on ER stressed SCG neurons was “rescue”. In addition, the “survived neurons as % … of GDNF” value with dopamine neurons (setting [4]) was determined as 68.57 % GDNF; in the data set with dopamine neurons (setting [5]), 83.1 % GDNF; in the data set on dopamine neurons (setting [6]), 87.93 % GDNF; in the data set on dopamine neurons (setting [7]) it was 84.16 % GDNF. Moreover, the “protection of dopaminergic neurons in culture (result in words)” value with dopamine neurons is “best protective effect”.
